Reference: patent US8987301B2, “Heteroarylaminoquinolines as TGF-beta receptor kinase inhibitors” (Merck Patent GmbH, priority 2009, dated 2015)

Biological target: T1, TβR (GST-ALK5) (Homo sapiens, UniProt P36897)
T1 sequence (P36897 34-503): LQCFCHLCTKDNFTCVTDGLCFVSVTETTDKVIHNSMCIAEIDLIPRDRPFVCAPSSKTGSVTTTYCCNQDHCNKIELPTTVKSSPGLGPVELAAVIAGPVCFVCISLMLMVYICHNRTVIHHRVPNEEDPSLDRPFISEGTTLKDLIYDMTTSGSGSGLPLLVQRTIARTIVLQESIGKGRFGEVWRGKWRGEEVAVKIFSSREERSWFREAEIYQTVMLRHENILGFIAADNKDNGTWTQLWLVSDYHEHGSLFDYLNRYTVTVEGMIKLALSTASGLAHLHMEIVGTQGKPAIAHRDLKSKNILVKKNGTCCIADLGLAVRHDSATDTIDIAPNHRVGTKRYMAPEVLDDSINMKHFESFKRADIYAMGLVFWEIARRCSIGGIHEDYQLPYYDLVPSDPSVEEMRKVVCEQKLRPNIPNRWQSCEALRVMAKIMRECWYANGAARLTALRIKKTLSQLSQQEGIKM
Assay: In-vitro (enzyme) flashplate kinase assay, TβR activity
Format: biochemical
Conditions: GST-ALK5, GST-SMAD2 substrate, 3 mM ATP
Experimental: In-Vitro (Enzyme) Assay for Determination of the Efficacy of Inhibitors of the Inhibition of TGF-Beta-Mediated Effects
The kinase assay was carried out as 384-well flashplate assay. […] The reaction was stopped using 25 μl of 200 mM EDTA solution, filtered with suction at room temperature after 30 min, and the wells were washed with 3 times 100 μl of 0.9% NaCl solution. Radioactivity was measured in the TopCount. The IC50 values were calculated using RS1. Above and below, all temperatures were indicated in ° C.

## c1ccc2c(Nc3ccncc3)cc(C3CCCCC3)nc2c1 [compound 047]
  IC50: 1000 to 10000 nM

## Fc1ccc(Cl)cc1-c1cc(-n2cnc3cnccc32)c2ccccc2n1 [compound 077]
  IC50: < 500 nM

## CN1CCN(c2nccc(Nc3cc(-c4cc(Cl)ccc4F)nc4ccccc34)n2)CC1 [compound 015]
  IC50: > 10000 nM

## Fc1ccc(Cl)cc1-c1cc(Nc2cc(Nc3cc(-c4cc(Cl)ccc4F)nc4ccccc34)ncn2)c2ccccc2n1 [compound 036]
  IC50: > 10000 nM

## CC(C)(C)C(=O)Nc1cc(Nc2cc(-c3cc(Cl)ccc3F)nc3ccccc23)ccn1 [compound 111]
  IC50: 1000 to 10000 nM

## Nc1ncnc(Nc2cc(-c3cc(Cl)ccc3F)nc3ccccc23)n1 [compound 078]
  IC50: < 500 nM

## CCOc1cc(Nc2cc(-c3cc(Cl)ccc3F)nc3ccccc23)ccn1 [compound 101]
  IC50: > 10000 nM

## Fc1ccc(Cl)cc1-c1cc(Nc2ccccn2)c2ccccc2n1 [compound 005]
  IC50: > 10000 nM

## Fc1ccc(Cl)cc1-c1cc(NCc2ccncc2)c2ccccc2n1 [compound 060]
  IC50: > 10000 nM

## Clc1ccc(-c2cc(Nc3ccncc3)c3ccccc3n2)cc1Cl [compound 108]
  IC50: > 10000 nM

## Fc1ccc(Cl)cc1-c1cc(Nc2ccnc(N(c3ccnc(Cl)c3)c3cc(-c4cc(Cl)ccc4F)nc4ccccc34)c2)c2ccccc2n1 [compound 022]
  IC50: 1000 to 10000 nM

## O=C(Nc1cnccc1Nc1cc(-c2cc(Cl)ccc2F)nc2ccccc12)C(F)(F)F [compound 033]
  IC50: 1000 to 10000 nM

## O=[N+]([O-])c1cnccc1Nc1cc(-c2cc(Cl)ccc2F)nc2ccccc12 [compound 018, [2-(5-Chloro-2-fluoro-phenyl)-quinolin-4-yl]-(3-nitro-pyridin-4-yl)-amine]
  IC50: 1000 to 10000 nM

## O=c1[nH]c2cnccc2n1-c1cc(-c2cc(Cl)ccc2F)nc2ccccc12 [compound 023, N*4*-[2-(5-Chloro-2-fluoro-phenyl)-quinolin-4-yl]-pyridine-3,4-diamine urea]
  IC50: < 500 nM

## CN1CCN(C(=O)Nc2cnccc2N(C(=O)N2CCN(C)CC2)c2cc(-c3cc(Cl)ccc3F)nc3ccccc23)CC1 [compound 061]
  IC50: > 10000 nM

## COc1cc(Nc2cc(-c3cc(Cl)ccc3F)nc3ccccc23)ncn1 [compound 104]
  IC50: > 10000 nM

## O=c1[nH]c2cnccc2n(-c2cc(-c3cc(Cl)ccc3F)nc3ccccc23)c1=O [compound 082]
  IC50: 1000 to 10000 nM

## O=C(Nc1cc(-c2cc(Cl)ccc2F)nc2ccccc12)c1ccncc1 [compound 009]
  IC50: 1000 to 10000 nM

## COCC(=O)Nc1cnccc1Nc1cc(-c2cc(Cl)ccc2F)nc2ccccc12 [compound 086]
  IC50: < 500 nM

## Nc1cc(Nc2cc(-c3cc(Cl)ccc3F)nc3ccccc23)ncn1 [compound 038]
  IC50: < 500 nM

## Nc1cnccc1Nc1cc(-c2ccccc2F)nc2ccccc12 [compound 074, N*4*-[2-(2-fluoro-phenyl)-quinolin-4-yl]-pyridine-3,4-diamine]
  IC50: 1000 to 10000 nM

## COC(=O)c1cnccc1Nc1cc(-c2cc(Cl)ccc2F)nc2ccccc12 [compound 116]
  IC50: < 500 nM

## O=S(=O)(CC(F)(F)F)Nc1cnccc1Nc1cc(-c2cc(Cl)ccc2F)nc2ccccc12 [compound 030]
  IC50: 1000 to 10000 nM

## CC(C)(C)Sc1cnccc1Nc1cc(-c2cc(Cl)ccc2F)nc2ccccc12 [compound 094]
  IC50: 500 to 1000 nM

## N#Cc1cncnc1Nc1cc(-c2cc(Cl)ccc2F)nc2ccccc12 [compound 122]
  IC50: < 500 nM

## CC(=O)OC(C)(C)C(=O)Nc1cnccc1Nc1cc(-c2cc(Cl)ccc2F)nc2ccccc12 [compound 088]
  IC50: 1000 to 10000 nM

## Oc1ccccc1-c1cc(Nc2ccncc2)c2ccccc2n1 [compound 099]
  IC50: > 10000 nM

## COc1cnccc1Nc1cc(-c2cc(Cl)ccc2F)nc2ccccc12 [compound 090, [2-(5-Chloro-2-fluoro-phenyl)-quinolin-4-yl]-(3-methoxy-pyridin-4-yl)-amine]
  IC50: < 500 nM

## Clc1ccccc1-c1cc(Nc2ccncc2)c2ccccc2n1 [compound 050]
  IC50: < 500 nM

## CCC(=O)Nc1cc(Nc2cc(-c3cc(Cl)ccc3F)nc3ccccc23)ccn1 [compound 113]
  IC50: < 500 nM

## OCc1cnccc1Nc1cc(-c2ccccc2F)nc2ccccc12 [compound 127]
  IC50: < 500 nM

## CN(C)CCCNc1cc(Nc2cc(-c3ccccc3F)nc3ccccc23)ccn1 [compound 121]
  IC50: < 500 nM

## O=S(=O)(O)Nc1cnccc1Nc1cc(-c2cc(Cl)ccc2F)nc2ccccc12 [compound 041]
  IC50: 1000 to 10000 nM

## COc1cccc(-c2cc(Nc3ccncc3)c3ccccc3n2)c1 [compound 049]
  IC50: 500 to 1000 nM

## Fc1ccc(Cl)cc1-c1cc(Nc2ccnnc2)c2ccccc2n1 [compound 020]
  IC50: < 500 nM

## CN1CCN(c2cc(Nc3cc(-c4cc(Cl)ccc4F)nc4ccccc34)cc(Cl)n2)CC1 [compound 097]
  IC50: > 10000 nM

## CNC(=O)c1cnccc1Nc1cc(-c2cc(Cl)ccc2F)nc2ccccc12 [compound 119]
  IC50: < 500 nM

## CN(C)c1cccc(-c2cc(Nc3cc(N)ncn3)c3ccccc3n2)c1 [compound 080]
  IC50: > 10000 nM

## O=c1[nH]c2cnccc2n1-c1c(O)c(-c2cc(Cl)ccc2F)nc2ccccc12 [compound 053]
  IC50: 1000 to 10000 nM

## CN1CCN(C(=O)Nc2cnccc2Nc2cc(-c3cc(Cl)ccc3F)nc3ccccc23)CC1 [compound 062]
  IC50: 500 to 1000 nM

## Nc1ncnc(Nc2cc(-c3cc(C(F)(F)F)ccc3F)nc3ccccc23)n1 [compound 118]
  IC50: < 500 nM

## Fc1ccc(Cl)cc1-c1cc(NCc2cccnc2)c2ccccc2n1 [compound 065]
  IC50: > 10000 nM

## CN(c1ccncc1)c1cc(-c2cc(Cl)ccc2F)nc2ccccc12 [compound 007]
  IC50: 500 to 1000 nM

## Fc1ccc(Cl)cc1-c1cc(Nc2cccnc2)c2ccccc2n1 [compound 012]
  IC50: > 10000 nM

## CN(C)CCC(=O)Nc1cnccc1Nc1cc(-c2cc(Cl)ccc2F)nc2ccccc12 [compound 064]
  IC50: < 500 nM

## Fc1ccc(Cl)cc1-c1cc(Nc2ccnc3cccnc23)c2ccccc2n1 [compound 024]
  IC50: < 500 nM

## FC(F)(F)c1cccc(-c2cc(Nc3ccncc3)c3ccccc3n2)c1 [compound 051]
  IC50: < 500 nM

## CCOC(=O)n1c(=O)n(-c2cc(-c3cc(Cl)ccc3F)nc3ccccc23)c2ccncc21 [compound 039]
  IC50: < 500 nM

## Fc1ccc(Br)cc1-c1cc(Nc2ccncc2)c2ccccc2n1 [compound 084]
  IC50: < 500 nM

## FC(F)(F)c1ccccc1-c1cc(Nc2ccncc2)c2ccccc2n1 [compound 083]
  IC50: > 10000 nM

## COc1ccccc1-c1cc(Nc2ccncc2)c2ccccc2n1 [compound 052]
  IC50: 1000 to 10000 nM

## CN(C)c1cccc(-c2cc(Nc3ccncn3)c3ccccc3n2)c1 [compound 081]
  IC50: > 10000 nM

## Fc1ccc(Cl)cc1-c1cc(Nc2ccncc2)c2cc3c(cc2n1)OCO3 [compound 095]
  IC50: > 10000 nM

## O=S1(=O)Nc2cnccc2N1c1cc(-c2cc(Cl)ccc2F)nc2ccccc12 [compound 025]
  IC50: < 500 nM

## Nc1cnccc1N(CCC(=O)O)c1cc(-c2cc(Cl)ccc2F)nc2ccccc12 [compound 072]
  IC50: > 10000 nM

## Fc1ccc(Cl)cc1-c1cc(Oc2ccncc2)c2ccccc2n1 [compound 006]
  IC50: > 10000 nM

## Nc1ccncc1Nc1cc(-c2cc(Cl)ccc2F)nc2ccccc12 [compound 029]
  IC50: > 10000 nM

## Clc1cccc(-c2cc(Nc3ccncc3)c3ccccc3n2)c1 [compound 059]
  IC50: < 500 nM

## CCN(CC)CCNS(=O)(=O)Nc1cnccc1Nc1cc(-c2cc(Cl)ccc2F)nc2ccccc12 [compound 076]
  IC50: 1000 to 10000 nM

## CN1CCN(C(=O)c2cnccc2Nc2cc(-c3cc(Cl)ccc3F)nc3ccccc23)CC1 [compound 126]
  IC50: 1000 to 10000 nM

## COCc1nc2cnccc2n1-c1cc(-c2cc(Cl)ccc2F)nc2ccccc12 [compound 089, 2-(5-Chloro-2-fluoro-phenyl)-4-(2-methoxymethyl-imidazo[4,5-c]pyridin-1-yl)-quinoline]
  IC50: < 500 nM

## Fc1ccc(Cl)cc1-c1cc(Nc2ccnc3[nH]ccc23)c2ccccc2n1 [compound 032]
  IC50: > 10000 nM

## Fc1ccc(Cl)cc1-c1cc(Nc2ccncc2C(F)(F)F)c2ccccc2n1 [compound 008]
  IC50: < 500 nM

## c1ccc(-c2cc(Nc3ccncc3)c3ccccc3n2)nc1 [compound 057]
  IC50: < 500 nM

## CC(C)(C)OC(=O)NCC(=O)Nc1cc(Nc2cc(-c3cc(Cl)ccc3F)nc3ccccc23)ccn1 [compound 114]
  IC50: 1000 to 10000 nM

## OCc1cnccc1Nc1cc(-c2cc(Cl)ccc2F)nc2ccccc12 [compound 120]
  IC50: < 500 nM

## CN1CCC(c2nc3cnccc3n2-c2cc(-c3cc(Cl)ccc3F)nc3ccccc23)CC1 [compound 028]
  IC50: > 10000 nM

## CN(C)CCNC(=O)c1cnccc1Nc1cc(-c2cc(Cl)ccc2F)nc2ccccc12 [compound 123]
  IC50: < 500 nM

## Fc1ccc(Cl)cc1-c1cc(-n2ccc3cnccc32)c2ccccc2n1 [compound 014]
  IC50: < 500 nM

## CN1CCN(c2cc(Nc3cc(-c4cc(Cl)ccc4F)nc4ccccc34)ccn2)CC1 [compound 100]
  IC50: 1000 to 10000 nM

## Fc1ccc(Cl)cc1-c1cc(Nc2cnncc2Nc2cc(-c3cc(Cl)ccc3F)nc3ccccc23)c2ccccc2n1 [compound 087]
  IC50: > 10000 nM

## CS(=O)(=O)Nc1cnccc1N(c1cc(-c2cc(Cl)ccc2F)nc2ccccc12)S(C)(=O)=O [compound 040]
  IC50: 1000 to 10000 nM
